Laboratory results from paper PMC3923716 (PLoS Neglected Tropical Diseases, 2014).
Where two headings read alike, the source gives them in different places.

Tests used:
B. pahangi Hsp90 = target: T1, B. pahangi Hsp90 (Brugia pahangi, UniProt O61998); test: Competition FP assay (displacement of Cy3B-GA), B. pahangi lysate; format: binding
T1 construct: Adult worms of B. pahangi were obtained from infected jirds; from tissue; host or cells: whole adult B. pahangi worms, ground and lysed in HFB buffer
Procedure: Adult worms of B. pahangi were obtained from infected jirds after 3–4 months, exactly as described previously and were frozen in liquid nitrogen, ground in a pestle and mortar to a fine powder and re-suspended in an appropriate volume of HFB assay buffer (20 mM HEPES, pH 7.3, 50 mM KCl, 5 mM MgCl2, 20 mM Na2MoO4, 1% NP40). Protein concentrations were estimated using the BioRad protein assay. At this point lysates were freeze-dried for shipping to the USA.
(§1) The FP assay was set up essentially as described previously, [25]. […] The equilibrium binding of Cy3B-GA and recombinant human Hsp90α (Enzo Life Sciences, Farmingdale, NY USA) or parasite lysate was determined by creating a two-fold dilution series of protein/extract for an eleven-point curve with the first column containing no protein. […] All FP values are expressed in millipolarization (mP) units with the mP value of free Cy3B-GA probe set to 50. Equilibrium binding constants were determined by nonlinear regression using a one-site binding model (GraphPad Prism software).
(§2) The relative binding affinities of inhibitors to human or parasite-derived Hsp90 was determined using competitive FP binding assays. […] For parasite-derived Hsp90, an amount of parasite lysate resulting in 50% of maximal Cy3B-GA binding was used. […] Stock solutions of each compound were prepared in DMSO at a concentration of 10 mM and 3-fold serial dilutions prepared in DMSO for eleven point curves. […] The final concentration of Cy3B-GA was 6 nM and the final DMSO concentration in all wells was 0.5%. Free Cy3B-GA (mP set to 50) and buffer only (background) wells were included as controls on each plate. Plates were incubated at 8°C with gentle shaking for 20 h.

B. malayi Hsp90 = B. malayi Hsp90 (Brugia malayi, UniProt A0A0H5S7Y7); test: Competition FP assay (displacement of Cy3B-GA), B. malayi lysate; format: binding
Procedure: as §1, §2

adult female B. pahangi = test: Adult female worm assay in vitro (Mf output and adult viability), continuous exposure; format: cell-based, Brugia pahangi; details: initial screen 2.0 µM to 100 nM, adult female worms
Procedure: For adult worm assays, adult female B. pahangi, 3–4 months old, were incubated individually in 2.0 ml of WCM overnight in 24-well plates and pre-screened for Mf production. […] For the drug experiments, six female worms of B. pahangi for each concentration of drug were cultured individually in 24-well plates in 2.0 ml of WCM containing drug, or carrier alone (DMSO) at a concentration equal to that in the highest concentration of drug. In some experiments, GA was used as a positive control. Initially, all five compounds were tested over selected concentrations starting at 2 µM to 100 nM (see Results for details). For Hsp90 inhibitors, Mf output by individual female worms is a sensitive indicator of adult worm viability and, in most experiments, was assessed at 72 h. In addition, adult worms were examined microscopically on a daily basis for 7–10 days to determine whether lower concentrations of drugs had any effects over a longer period of incubation. Results are expressed as mean Mf output ± SD over a 72 h period. Statistical significance between groups was calculated using the Mann Whitney test with P values<0.05 being considered significant.

[1] = test system: B. pahangi Mf (microfilariae); test: Mf viability in vitro; format: cell-based, Brugia pahangi; details: for % death by day 7: Mf; for effect of lower concentrations on Mf: concentrations below the killing concentration; for condition of Mf: 250 nM, day 7
Procedure: As adult Brugia worms are limited in numbers, initial experiments assessed the effect of each drug on Mf viability. Mf were purified from infected animals essentially as described previously. In brief, following lavage of the peritoneal cavity of an infected animal with Hanks Balanced Salt Solution (HBSS) pre-warmed to 37°C, Mf were collected by centrifugation and then purified from host cells by centrifugation through lymphoprep (Sigma). This procedure was repeated twice. Mf were collected from the pellet, washed twice in HBSS and once in worm culture medium (WCM) which comprised RPMI 1640, (Invitrogen Cat No: 52400), containing 5% heat inactivated fetal calf serum, 1% glucose, 100 units/ml penicillin and 100 µg/ml streptomycin (all Invitrogen). Mf were then dispensed into the wells of a 24-well plate to give approximately 200 Mf in 2.0 ml, using a single well for each drug concentration. All procedures were carried out using aseptic techniques. The five novel compounds, plus GA and medium alone controls, were tested three times against Mf over the full range of concentrations.

recombinant human Hsp90α = target: T2, recombinant human Hsp90α (Homo sapiens, UniProt P07900); test: Competition FP assay (displacement of Cy3B-GA), human Hsp90α; format: binding
T2 construct: purchased Enzo Life Sciences
Procedure: as §1
as §2, with “Free Cy3B-GA (mP set to 50) and buffer only (background) wells were included as controls on each plate.” left out

Brugia Hsp90 = test: Competition FP assay, Brugia Hsp90 (species not separated); format: binding
Procedure: as §1, §2

adult B. malayi worms = details: 48 h of drug exposure
From the text: (§3) Plates were maintained for up to 10 days and the condition of adult parasites noted at regular intervals. In one experiment the effect of GA on Mf output by adult B. malayi worms was compared with B. pahangi. B. malayi worms were kindly provided by Prof. R. Maizels (University of Edinburgh). […] In all in vitro experiments, plates were viewed daily and the motility and condition of the parasites noted by two independent observers, of whom one was unaware of the contents of the well.

adult B. pahangi worms = details: 48 h of drug exposure
From the text: as §3

[2] = FP assay, best fit (95% confidence intervals), read-out: B. pahangi IC50
[3] = best fit (95% confidence intervals), read-out: B. malayi IC50
[4] = read-out: B. malayi IC50, best fit (95% confidence intervals)

Row | SMILES | IC50 (B. pahangi Hsp90; [2]) [µM] | IC50 (B. malayi Hsp90; [3]) [µM] | IC50 (B. malayi Hsp90; [4]) [µM] | concentration with significant effect on Mf output (adult female B. pahangi) [nM] | further results
1 | C=CCNC1=C2C[C@@H](C)C[C@H](OC)[C@H](O)[C@@H](C)/C=C(\C)[C@H](OC(N)=O)[C@@H](OC)/C=C\C=C(/C)C(=O)NC(=CC1=O)C2=O [17-AAG] | 0.008 | 0.0025 |  |  | 
2 | COc1c(C)cnc(Cn2cnc3c(Cl)nc(N)nc32)c1C [BIIB021] |  |  | 0.014 | 2000 | IC50 (B. pahangi Hsp90): 0.016 µM; concentration active on Mf ([1]; 7 days, tested 4.0 µM to 0.976 nM): 4.0 µM; % death by day 7 ([1]; 4.0 µM): 100%; effect of lower concentrations on Mf ([1]; 7 days): affected worm motility but did not kill the worms
3 | CCc1cc(-c2n[nH]c(C)c2-c2ccc3c(c2)OCCO3)c(O)cc1O [CCT018159] | 0.24 | 0.33 |  |  | 
4 | CC1(C)CC(=O)c2c(C(F)(F)F)nn(-c3ccc(C(N)=O)c(N[C@H]4CC[C@H](O)CC4)c3)c2C1 [SNX-2112] |  |  | 0.02 | 500 | IC50 (B. pahangi Hsp90): 0.015 µM; condition of Mf [1]: very sluggish but still alive
5 | CC(C)NCCCn1c(Sc2cc3c(cc2I)OCO3)nc2c(N)ncnc21 [PU-H71] | 0.017 | 0.027 |  |  | 
6 | CCNC(=O)c1cc2c(-c3cc(OCCN4CCCC4)c(Cl)cc3Cl)nc(N)nc2s1 [NVP-BEP800] |  |  | 0.0087 | ≤ 100 | IC50 (B. pahangi Hsp90): 0.0069 µM; IC50 (recombinant human Hsp90α): 0.013 µM; IC50 (Brugia Hsp90; read-out: IC50 for binding to Brugia Hsp90): ~0.007 µM; EC50 ([1]; Brugia pahangi, 168 h, read-out: EC50 against Mf viability): ~0.25 µM; % death by day 7 ([1]; 500 nM): majority of Mf; effect of lower concentrations on Mf ([1]; 7 days): affected Mf motility but did not kill substantial numbers of worms
7 | CC1(C)CC(=O)c2c(C(F)(F)F)nn(-c3ccc(C(N)=O)c(N[C@H]4CCC[C@@H]4O)c3)c2C1 [SNX-9203] | 0.01 | 0.011 |  | ≤ 100 | IC50 (recombinant human Hsp90α; FP assay, best fit (95% confidence intervals), read-out: HsHsp90α IC50): 0.0038 µM; condition of Mf [1]: most worms were alive but were much less motile than controls; % death by day 7 ([1]; 500 nM): 90%
8 | COC1=C2C[C@@H](C)C[C@H](OC)[C@H](O)[C@@H](C)/C=C(\C)[C@H](OC(N)=O)[C@@H](OC)/C=C\C=C(/C)C(=O)NC(=CC1=O)C2=O [Geldanamycin] |  |  | 0.012 |  | reduction in Mf output (adult B. malayi worms; 1.0 µM): 74%; reduction in Mf output (adult B. malayi worms; 2.0 µM): 93%; reduction in Mf output (adult B. pahangi worms; 1.0 µM): 78%; reduction in Mf output (adult B. pahangi worms; 2.0 µM): 92%; % death by day 7 ([1]; 31.25 nM, listed as GA): 90%
9 | CCNC(=O)c1[nH]nc(-c2cc(Cl)c(O)cc2O)c1-c1ccc(OC)cc1 [VER-49009] | 0.011 | 0.014 |  |  | 
10 | Oc1cc(O)c(-c2noc3ccc(NCCN4CCOCC4)cc23)cc1Cl [CAY10607] | 0.0016 | 0.016 |  |  | higher affinity for B. pahangi Hsp90 compared to B. malayi Hsp90 (Brugia Hsp90): 10 fold
11 | CCNC(=O)c1noc(-c2cc(Cl)c(O)cc2O)c1-c1ccc(OC)cc1 [VER-50589] | 0.00054 | 0.0012 |  |  | 
